Target: Apoptosis regulator Bcl-2 (Homo sapiens, UniProt P10415)
Assay: Binding Assay
Description: Table 1: Binding to Bcl-2 proteins Bcl-2, and Bcl-XL was assessed using the Bcl2scan platform: T7 phage strains displaying BCL2 proteins were grown in parallel in 24-well blocks in an E. coli host derived from the BL21 strain. E. coli were grown to log-phase and infected with T7 phage from a frozen stock (multiplicity of infection=0.4) and incubated with shaking at 32° C. until lysis (90-150 minutes). The lysates were centrifuged (5,000×g) and filtered (0.2 μm) to remove cell debris. […] The liganded beads were blocked with excess biotin and washed with blocking buffer (SeaBlock (Pierce), 1% BSA, 0.05% Tween 20, 1 mM DTT) to remove unbound ligand and to reduce non-specific phage binding. […] Test compounds were prepared as 100× stocks in 100% DMSO. Kds were determined using an 11-point 3-fold compound dilution series with one DMSO control point. […] The compounds were then diluted directly into the assays such that the final concentration of DMSO was 0.9%. All reactions performed in polypropylene 384-well plates. Each was a final volume of 0.02 ml.

Chain of Apoptosis regulator Bcl-2 (P10415 whole entry): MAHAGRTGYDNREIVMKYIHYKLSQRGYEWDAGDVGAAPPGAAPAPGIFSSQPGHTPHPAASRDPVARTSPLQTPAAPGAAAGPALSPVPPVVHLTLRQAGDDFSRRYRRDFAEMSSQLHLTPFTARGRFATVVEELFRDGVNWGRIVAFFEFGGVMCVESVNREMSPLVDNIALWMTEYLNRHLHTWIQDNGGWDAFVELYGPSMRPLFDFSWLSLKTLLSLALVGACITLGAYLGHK

Structure (SMILES): CCC12CC(C3=C(CN4CCN(c5ccc(C(=O)NS(=O)(=O)c6ccc(OCC7(F)CCOCC7)c([N+](=O)O)c6)c(Oc6cnc7[nH]ccc7c6)c5)CC4)CCC(C)(C)C3)(C1)C2 [US11344546, Example 26]
- Kd: < 10 nM
